{"source": "patent US20260034192A1", "about": "(University of Saskatchewan, priority 2022, published 2026)", "key": {"[1]": {"test_system": "pubertal Hereford-cross beef heifers", "assay": "Two 1.5 mg Cetrorelix injections at pre-selection, growing or late-static phase in beef heifers (Example 4)", "assay_type": "in vivo, cattle", "method": "The study was conducted on pubertal Hereford-cross beef heifers (n=32) at the U. Sask. Livestock and Forage Centre of Excellence (LFCE). Initial transrectal ultrasonography was performed to confirm the puberty by the presence or absence of a corpus luteum (CL). Animals were also weighed at this time. Animals with a functional CL were administered an intramuscular (im) injection of prostaglandin F2a analog (cloprostenol) to cause CL regression and ovulation. Daily ultrasonography was performed to detect ovulation and to record the number, size and location of follicles and CL in both ovaries. The day of emergence of a follicular wave was initially estimated by sudden increase in the number of 3-4 mm follicles and confirmed retrospectively as the day on which the dominant follicle was first detected at 4 to 5 mm in size (defined as Day 0). Follicular and hormonal data (see next section for endpoints) from all animals was collected for one complete inter-ovulatory interval.\nAnimals were randomized into 4 groups based on the day of ovulation. Group 1 (control group) heifers were given 3 mL normal saline (sham-treated negative control; n=3 on Days 1 and 2, n=3 on Days 3 and 4, n=2 on Days 6 and 7). Group 2 heifers were given 1.5 mg Cetrorelix on Days 1 and 2 (pre-selection dominant follicle phase; n=8), Group 3 heifers were given Cetrorelix on Days 3 and 4 (dominant follicle growing phase; n=8), and Group 4 heifers were given Cetrorelix on Days 6 and 7 (dominant follicle late-static/early regressing phase; n=8). The dose of Cetrorelix (1.5 mg per treatment), route of administration (intramuscular) and duration of treatment (i.e., 2 doses at 24 hr interval) were selected based on Example 2 and previous studies in cattle (Ulker et al, 2001).\nChanges in the size of the dominant follicle, largest subordinate follicle and CL, and the number of follicles in 3-5, 6-8, and 9+mm size categories were recorded daily from initial ovulation to the first post-treatment ovulation. The inter-wave interval was determined based on duration between emergence of successive follicular waves.\nBlood samples were also collected every 12 hours by jugular venipuncture for measurement of plasma LH concentrations from −36 hr to +72 hr of treatment. Blood samples were collected daily for measurement of plasma progesterone concentrations from 1 day before to 7 days after treatment. A Proc Mixed repeated measures analysis of variance (SAS version 9.4) was performed to compare serial data (follicle size, follicle numbers, CL size, plasma LH, plasma progesterone)."}, "bovine pituitary cells": {"test_system": "bovine pituitary cells", "assay": "GnRH-induced LH secretion of bovine pituitary cells in vitro (Example 9)", "assay_type": "cell-based", "conditions": "300 μg cetrorelix, 340 μg Degarelix, 300 ug Abarelix, 130 μg Relugolix", "method": "Methods: The heads of mature, non-pregnant cows (n=4) were collected from a local abattoir and the pituitary glands were dissected within 60 minutes of slaughter. Immediately following the dissection, the pituitaries were submerged into ice-cold collection medium. The pituitaries were washed 3 times in collection media and the neurohypophysis was dissected from the adenohypophysis. Using a scalpel, the adenohypophysis (anterior pituitary) was sliced into 1 mm×1 mm pieces and transferred to a 50 mL falcon tube containing DMEM medium with 0.5% BSA. The tissue pieces were washed by manually agitating the tube for 1 minute. The tissue pieces were allowed to settle to the bottom of the tube, then the supernatant was discarded. The macerated pieces were transferred to a 15 mL falcon tube with the dissociation medium and incubated at 37° C. for 60 minutes. Every 10 minutes the tube was vortexed for 1 minute to ensure the tissue was completely dissociated. The dissociation media was inactivated using DMEM with 10% SFB then manually agitating the tube for 1 minute. The dissociated cells were placed in a 40 μm cell strainer to remove the undigested tissue and placed into two 15 mL falcon tubes. The cells were centrifuged at 200×g for 10 minutes and the supernatant was discarded. The cells were washed three times by resuspending in DMEM solution with red blood cell lysing buffer followed by centrifuged at 200×g for 10 minutes. Then the cells were washed with DMEM solution and centrifuged at 200×g for 10 minutes. Following the last centrifugation, the cells were resuspended in DMEM, and the trypan blue test was used to determine the cell count and assess viability. DMEM with 10% fetal bovine serum (FBS) was treated with 10% charcoal-dextran and passed through a 0.2 μm filter. The cells were then plated in a 24-well tissue culture plate with a concentration of 1×10^6 viable cells per well and incubated at 37° C. for 24 hours. The following day, to starve the cells, the culture media was replaced with DMEM without FBS and left to incubate for another 24 hours.\nTreatments: Based on the results from the pilot study, the selected concentration for Cetrorelix (cetrorelix acetate) was 300 μg. The cetrorelix was dissolved in trace levels of DMSO then dissolved in ultrapure water. To standardize the treatments, the nanomole concentration of each GnRH antagonist were matched with the cetrorelix nanomole concentration. The final concentration used for further experiments were: 300 μg for cetrorelix, 340 μg for Degarelix (Degarelix acetate), 300 ug for Abarelix (Abarelix acetate). Both degarelix and abarelix were dissolved ultrapure water. The equivalent Relugolix nanomole concentration was 130 μg which was dissolved in methanol. Treatment cells were preincubated for 60 minutes with either Cetrorelix, Degarelix, Relugolix or Abarelix. Following the preincubation, the cells were incubated for 30 minutes with either 1 nM or 10 nM of GnRH (Gonadorelin, Fertagyl, Merck Animal Health). GnRH doses were based on pituitary study by Paolicchi et al. 1999). The media were collected and centrifuged at 200×g for 10 minutes to remove the cells. Positive (Control) group was only treated with 1 nM and 10 nM of GnRH to determine the maximum LH secretion. LH concentrations in the culture medium was measured by a commercial bovine specific ELISA kit and reported as mIU/ml of medium."}}, "note": "Marks after values point to notes of the source that are not given here. Square brackets hold non-standard residues; d marks the D form. Peptide text beside a SMILES is read from it. dPhe(4-Cl) = N[C@H](Cc1ccc(Cl)cc1)C(=O)O; d2Nal = N[C@H](Cc1ccc2ccccc2c1)C(=O)O; dCit = NC(=O)NCCC[C@@H](N)C(=O)O; d3Pal = N[C@H](Cc1cccnc1)C(=O)O"}
{"molecule": "CC(=O)N[C@H](Cc1ccc2ccccc2c1)C(=O)N[C@H](Cc1ccc(Cl)cc1)C(=O)N[C@H](Cc1cccnc1)C(=O)N[C@@H](CO)C(=O)N[C@@H](Cc1ccc(O)cc1)C(=O)N[C@H](CCCNC(N)=O)C(=O)N[C@@H](CC(C)C)C(=O)N[C@@H](CCCNC(=N)N)C(=O)N1CCC[C@H]1C(=O)N[C@H](C)C(N)=O", "note": "[Cetrorelix, N-acetyl-3-(2-naphthyl)-D-alanyl-4-chloro-D-phenylalanyl-3-(3-pyridyl)-D-alanyl-L-seryl-L-tyrosyl-D-citrullyl-L-leucyl-L-arginyl-L-prolyl-D-alaninamide] (Ac-[d2Nal][dPhe(4-Cl)][d3Pal]SY[dCit]LRP[dA]-NH2)", "values": [{"measurement": "Days from treatment to next wave emergence", "setting": "[1]; 1.5 mg i/m on Day 1-2 of wave", "result": "5.9 ± 0.4", "unit": "days"}, {"measurement": "Days from treatment to next wave's dominant follicle at 9 mm", "setting": "[1]; 1.5 mg i/m on Day 1-2 of wave", "result": "9.1 ± 0.8", "unit": "days"}, {"measurement": "Interovulatory Interval", "setting": "[1]; 1.5 mg i/m on Day 1-2 of wave", "result": "21.5 ± 1.4"}, {"measurement": "Interwave Interval", "setting": "[1]; 1.5 mg i/m on Day 1-2 of wave", "result": "6.9 ± 0.4^b"}, {"measurement": "Largest Dominant Follicle Diameter (mm)", "setting": "[1]; 1.5 mg i/m on Day 1-2 of wave", "result": "10.3 ± 0.6^b mm"}, {"measurement": "Largest Subordinate Follicle Diameter (mm)", "setting": "[1]; 1.5 mg i/m on Day 1-2 of wave", "result": "7.1 ± 0.5^b mm"}, {"measurement": "Number of Follicles at WE", "setting": "[1]; 1.5 mg i/m on Day 1-2 of wave", "result": "19.3 ± 2.0"}, {"measurement": "Time to Largest Dominant (days)", "setting": "[1]; 1.5 mg i/m on Day 1-2 of wave", "result": "6.3 ± 0.9^ab days"}, {"measurement": "Time to Largest Subordinate", "setting": "[1]; 1.5 mg i/m on Day 1-2 of wave", "result": "3.1 ± 0.6", "unit": "days"}, {"measurement": "Length of Wave 2", "setting": "[1]; 1.5 mg i/m on Day 1-2 of wave, in d (unit assumed)", "result": "9.3 ± 0.7"}, {"measurement": "Days from treatment to next wave emergence", "setting": "[1]; 1.5 mg i/m on Day 3-4 of wave", "result": "5.8 ± 0.5", "unit": "days"}, {"measurement": "Days from treatment to next wave's dominant follicle at 9 mm", "setting": "[1]; 1.5 mg i/m on Day 3-4 of wave", "result": "9.5 ± 0.5", "unit": "days"}, {"measurement": "Interovulatory Interval", "setting": "[1]; 1.5 mg i/m on Day 3-4 of wave", "result": "20.3 ± 0.4"}, {"measurement": "Interwave Interval", "setting": "[1]; 1.5 mg i/m on Day 3-4 of wave", "result": "8.9 ± 0.4^ab"}, {"measurement": "Largest Dominant Follicle Diameter (mm)", "setting": "[1]; 1.5 mg i/m on Day 3-4 of wave", "result": "10.6 ± 0.4^b mm"}, {"measurement": "Largest Subordinate Follicle Diameter (mm)", "setting": "[1]; 1.5 mg i/m on Day 3-4 of wave", "result": "6.9 ± 0.4^b mm"}, {"measurement": "Number of Follicles at WE", "setting": "[1]; 1.5 mg i/m on Day 3-4 of wave", "result": "20.9 ± 2.7 ^"}, {"measurement": "Time to Largest Dominant (days)", "setting": "[1]; 1.5 mg i/m on Day 3-4 of wave", "result": "4.6 ± 0.6^b days"}, {"measurement": "Time to Largest Subordinate (days)", "setting": "[1]; 1.5 mg i/m on Day 3-4 of wave", "result": "4.0 ± 1.0^ days"}, {"measurement": "Length of Wave 2", "setting": "[1]; 1.5 mg i/m on Day 3-4 of wave, in d (unit assumed)", "result": "9.1 ± 0.8"}, {"measurement": "Days from treatment to next wave emergence", "setting": "[1]; 1.5 mg i/m on Day 6-7 of wave", "result": "4.3 ± 0.6", "unit": "days"}, {"measurement": "Days from treatment to next wave's dominant follicle at 9 mm", "setting": "[1]; 1.5 mg i/m on Day 6-7 of wave", "result": "8.3 ± 0.7", "unit": "days"}, {"measurement": "Interovulatory Interval", "setting": "[1]; 1.5 mg i/m on Day 6-7 of wave", "result": "19.6 ± 0.6"}, {"measurement": "Interwave Interval", "setting": "[1]; 1.5 mg i/m on Day 6-7 of wave", "result": "10.3 ± 0.6^a"}, {"measurement": "Largest Dominant Follicle Diameter (mm)", "setting": "[1]; 1.5 mg i/m on Day 6-7 of wave", "result": "12.9 ± 0.4^a mm"}, {"measurement": "Largest Subordinate Follicle Diameter (mm)", "setting": "[1]; 1.5 mg i/m on Day 6-7 of wave", "result": "7.9 ± 0.6^b mm"}, {"measurement": "Length of Wave 2", "setting": "[1]; 1.5 mg i/m on Day 6-7 of wave", "result": "8.3 ± 0.5"}, {"measurement": "Number of Follicles at WE", "setting": "[1]; 1.5 mg i/m on Day 6-7 of wave", "result": "15.8 ± 1.1"}, {"measurement": "Time to Largest Dominant (days)", "setting": "[1]; 1.5 mg i/m on Day 6-7 of wave", "result": "6.8 ± 0.9^ab days"}, {"measurement": "Time to Largest Subordinate", "setting": "[1]; 1.5 mg i/m on Day 6-7 of wave", "result": "3.9 ± 0.5", "unit": "days"}, {"measurement": "Wave emergence after the first Cetrorelix treatment irrespective of phase of dominant follicle", "setting": "[1]; two 1.5 mg (about 3.75 ug/kg) i/m doses 24 hr apart, groups combined", "result": "5.3 ± 0.3", "unit": "days"}, {"measurement": "Next wave dominant follicle ready for ovulation", "setting": "[1]; two 1.5 mg i/m doses", "result": 9, "unit": "days"}, {"measurement": "LH conc in medium", "setting": "bovine pituitary cells; challenged with 1 nM GnRH 30 minutes after 60 minutes preincubation", "result": 0.09, "unit": "mIU/mL"}, {"measurement": "LH conc in medium", "setting": "bovine pituitary cells; challenged with 10 nM GnRH 30 minutes after 60 minutes preincubation", "result": 0.50, "unit": "mIU/mL"}]}
